Laboratory results as given in US12059404B2, “Mesembrenol and/or mesembranol for prophylaxis and treatment of patients suffering from epilepsy and associated diseases” (HG&H Pharmaceuticals (Pty) Ltd, priority 2017, dated 2024).

Key:
[1] = tested on: AMPA mediated transmission; test: In vitro hippocampus slice population spike with Fluorowillardine alone or together with alkaloids; assay type: cell-based, rat; details: isolated alkaloids; mean of 3 slices; FIG. 7
Protocol: Four important alkaloids contained in Zembrin® namely, mesembrenone, mesembrenol, mesembrine and mesembranol, were individually isolated. Similar tests to those described in example A were carried out on each of these isolated alkaloids, in the presence of two concentrations in the nanomolar range and the results are illustrated in FIGS. 5 to 7. In FIG. 5, the statistical significance of p<0.01 is marked by stars. In FIG. 6, the statistical significance of p<0.01 is marked by stars. In FIG. 7, mean values of 3 slices are depicted for each recording condition. Statistical significance between Fluorowillardine alone and the presence of the alkaloids is documented by stars. (**=p<0.05; ***=p<0.01).

[2] = tested on: pyramidal cell activity in hippocampus slices; test: In vitro hippocampus slice population spike in presence of isolated alkaloids; assay type: cell-based, rat; details: for attenuation of population spike amplitude, single shock stimuli / attenuation of population spike amplitude, theta burst stimuli: two concentrations in the nanomolar range; for attenuation of population spike amplitude, single shock stimuli: FIG. 5; for attenuation of population spike amplitude, theta burst stimuli: FIG. 6
Text: Electric stimulation of Schaffer Collaterals leads to release of glutamate resulting in excitation of the postsynaptic pyramidal cells. The result of the electric stimulation can be recorded as so-called population spike (pop-spike). The amplitude of the resulting population spike represents the number of recruited pyramidal cells. The model of hippocampal pyramidal cell activity reflects the effects of physiological interventions by an increase or decrease of the amplitude of the population spike.
Hippocampus slices were obtained from 19 adult male Sprague-Dawlay rats (Charles River Wiga, Sulzbach, Germany). Rats were kept under a reversed day/night cycle for 2 weeks prior to the start of the experiments to allow recording of in vitro activity from slices during the active phase of their circadian rhythm (Dimpfel, W., Dalhoff, B., Hofmann, W., Schlüter, G. (1994) Electrically evoked potentials in the rat hippocampus slice in the presence of aminophylline alone and in combination with quinolones (European Neuropsychopharmacology, 4, 151-156).
Preparation of the slices was performed exactly as reported earlier (Dimpfel, W. and Hoffmann, J. A. (2011) Effects of rasagiline, its metabolite aminoindan and selegiline on glutamate receptor mediated signalling in the rat hippocampus slice in vitro (BMC Pharmacology, 11, 2)). Animals were exsanguinated under ether anaesthesia; the brain was removed in total and the hippocampal formation was isolated under microstereoscopic sight. The midsection of the hippocampus was fixed to the table of a vibrating microtome (Rhema Labortechnik, Hofheim, Germany) using a cyanoacrylate adhesive, submerged in chilled bicarbonate-buffered saline (artificial cerebrospinal fluid (ACSF): NaCl: 124 mM, KCl: 5 mM, CaCl2: 2 mM, MgSO4: 2 mM, NaHCO3: 26 mM, glucose: 10 mM, and cut into slices of 400μ thickness. All slices were pre-incubated for at least 1 h in Carbogen saturated ACSF (pH 7.4) in a pre-chamber before use (Dimpfel, W., Spüler, M., Dalhoff, A., Hoffmann, W., Schlüter, G. (1991) Hippocampal activity in the presence of quinolones and fenbufen in-vitro (Antimicrobial Agents and Chemotherapy, 35, 1142-1146).
During the experiment the slices were held and treated in a special superfusion chamber (List Electronics, Darmstadt, Germany) according to (Haas, H L., Schaerer, B., Vosmansky, M. (1979). A simple perfusion chamber for the study of nervous tissue slices in vitro (J Neurosci Methods, 1, 323-5), at 35° C. (Schiff, S J., Somjen, G G. (1985) The Effects of Temperature on Synaptic Transmission in Hippocampal Tissue Slices (Brain Research, 345, 279-284)). The preparation was superfused with ACSF at 180-230 ml/h. Electric stimulation (200 μA constant current pulses of 200 μs pulse width) of the Schaffer Collaterals within the […] area and recording of extracellular field potentials from the pyramidal cell layer of CA1 (Dimpfel, W., Spüler, M., Dalhoff, A., Hoffmann, W., Schlüter, G. (1991) Hippocampal activity in the presence of quinolones and fenbufen in-vitro (Antimicrobial Agents and Chemotherapy, 35, 1142-1146).
Measurements were performed at 10 min intervals to avoid potentiation mechanisms. Four stimulations—each 20 seconds apart—were averaged for each time point. After obtaining three stable responses to single stimuli (SS) long-term potentiation was induced by applying a theta burst type pattern (TBS). […]

Structure (SMILES)	interaction with AMPA mediated transmission (population spike with Fluorowillardine alone or with alkaloid) [1]	attenuation of population spike amplitude, single shock stimuli [2]	attenuation of population spike amplitude, theta burst stimuli [2]	concentration exerting a similar extent of attenuation of population spike amplitude ([2]; FIGS. 5 and 6)
COc1ccc(C23C=CC(O)CC2N(C)CC3)cc1OC (stereo not shown) [mesembrenol]	interact with AMPA mediated transmission	stronger attenuation	stronger attenuation	–
COc1ccc([C@@]23CCC(=O)C[C@@H]2N(C)CC3)cc1OC [mesembrine, reference compound]	–	–	–	8.65 nM
COc1ccc(C23CCC(O)CC2N(C)CC3)cc1OC (stereo not shown) [mesembranol]	interact with AMPA mediated transmission	stronger attenuation	stronger attenuation	–
